# Measured values from patent US11505536B2, “Dihydroorotate dehydrogenase inhibitors” (Janssen Biotech, Inc., priority 2019, dated 2022).
# Legend:
# [1] = tested on: MOLM-13 cells (human acute myeloid leukemia cells); experiment: MOLM-13 Cellular Assay; format: cell-based; conditions: 72 hours exposure, cell viability by CellTiter-Glo
# Procedure, shortened: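 MOLM-13 AML cells, seeded at 5,000/well in RPMI 1640 with 10% FBS, were treated with compounds right after seeding for 72 h at 37 °C, 5% CO2. Viability read by CellTiter-Glo luminescence.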
# human DHODH = human DHODH (Homo sapiens (Human), UniProt Q02127); experiment: DHODH Enzymatic Assay; format: biochemical; conditions: purified human DHODH, DCIP absorbance, end-point mode; read-out: hDHODH IC50
# Procedure, shortened: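 Purified human DHODH in […] HEPES pH 7.5, 150 mM NaCl, 0.5 mM EDTA, 0.1% Triton X-100; reaction started with substrate mix of 20 mM DHO, 5 mM CoQ6, 1 mM DCIP. End-point read as DCIP reduction (absorbance ~600 nm) after brequinar quench.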
# human DHODH, sequence (Q02127 whole entry): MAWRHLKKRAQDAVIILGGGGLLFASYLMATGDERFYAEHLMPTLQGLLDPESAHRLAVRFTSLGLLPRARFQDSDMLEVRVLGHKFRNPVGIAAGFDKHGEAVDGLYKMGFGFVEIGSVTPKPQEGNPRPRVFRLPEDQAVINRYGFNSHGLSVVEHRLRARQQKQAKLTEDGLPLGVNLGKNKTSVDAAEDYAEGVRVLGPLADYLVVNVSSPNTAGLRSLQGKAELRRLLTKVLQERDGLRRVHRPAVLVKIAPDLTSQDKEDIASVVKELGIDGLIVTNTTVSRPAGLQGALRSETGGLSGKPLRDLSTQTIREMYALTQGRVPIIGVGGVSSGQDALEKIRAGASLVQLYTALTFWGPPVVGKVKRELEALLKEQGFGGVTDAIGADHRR
SMILES,"IC50 ([1]; Homo sapiens, MOLM-13, 72 h) [nM]",IC50 (human DHODH) [nM],IC50 [1] [nM]
"C=C(C)c1cn(-c2ccccc2C)c(=O)c2cc(C)c(-n3nc(CO)n(CC)c3=O)cc12 [Example 79, 6-(4-Ethyl-3-(hydroxymethyl)-5-oxo-4,5-dihydro-1H-1,2,4-triazol-1-yl)-7-methyl-4-(prop-1-en-2-yl)-2-(o-tolyl)isoquinolin-1(2H)-one]",10,17.1,–
"CCn1c(CO)nn(-c2cc3c(C(C)C)cn(-c4c(F)ccc(OC)c4Cl)c(=O)c3cc2F)c1=O [Example 80, 2-(2-Chloro-6-fluoro-3-methoxyphenyl)-6-(4-ethyl-3-(hydroxymethyl)-5-oxo-4,5-dihydro-1H-1,2,4-triazol-1-yl)-7-fluoro-4-isopropylisoquinolin-1(2H)-one]",0.3,0.273,–
"C=C(c1cn(-c2ccccc2C)c(=O)c2cc(F)c(-n3nc(CO)n(CC)c3=O)cc12)C(F)(F)F [Example 81, 6-(4-Ethyl-3-(hydroxymethyl)-5-oxo-4,5-dihydro-1H-1,2,4-triazol-1-yl)-7-fluoro-2-(o-tolyl)-4-(3,3,3-trifluoroprop-1-en-2-yl)isoquinolin-1(2H)-one]",0.3,0.226,–
"C=C(C)c1cn(-c2ccccc2OC)c(=O)c2cc(F)c(-n3nc(CO)n(CC)c3=O)cc12 [Example 83, 6-(4-Ethyl-3-(hydroxymethyl)-5-oxo-4,5-dihydro-1H-1,2,4-triazol-1-yl)-7-fluoro-2-(2-methoxyphenyl)-4-(prop-1-en-2-yl)isoquinolin-1(2H)-one]",≤ 0.2,0.444,0.2
"C=C(C)c1cn(-c2cc(C)cnc2Cl)c(=O)c2cc(F)c(-n3nc(CO)n(CC)c3=O)cc12 [Example 84, 2-(2-Chloro-5-methylpyridin-3-yl)-6-(4-ethyl-3-(hydroxymethyl)-5-oxo-4,5-dihydro-1H-1,2,4-triazol-1-yl)-7-fluoro-4-(prop-1-en-2-yl)isoquinolin-1(2H)-one]",70,6.58,–
"C=C(C)c1cn(-c2cc(OC)ncc2F)c(=O)c2cc(F)c(-n3nc(CO)n(CC)c3=O)cc12 [Example 85, 6-(4-Ethyl-3-(hydroxymethyl)-5-oxo-4,5-dihydro-1H-1,2,4-triazol-1-yl)-7-fluoro-2-(5-fluoro-2-methoxypyridin-4-yl)-4-(prop-1-en-2-yl)isoquinolin-1(2H)-one]",20,6.55,–
"C=C(C)c1cn(-c2cccc(F)c2C)c(=O)c2cc(F)c(-n3nc(CO)n(CC)c3=O)cc12 [Example 86, 6-(4-Ethyl-3-(hydroxymethyl)-5-oxo-4,5-dihydro-1H-1,2,4-triazol-1-yl)-7-fluoro-2-(3-fluoro-2-methylphenyl)-4-(prop-1-en-2-yl)isoquinolin-1(2H)-one]",3,1.19,–
"C=C(C)c1cn(-c2cc(C)ccc2C)c(=O)c2cc(F)c(-n3nc(CO)n(CC)c3=O)cc12 [Example 87, 2-(2,5-Dimethylphenyl)-6-(4-ethyl-3-(hydroxymethyl)-5-oxo-4,5-dihydro-1H-1,2,4-triazol-1-yl)-7-fluoro-4-(prop-1-en-2-yl)isoquinolin-1(2H)-one]",0.9,0.292,–
"CCc1ccccc1-n1cc(C(C)C)c2cc(-n3nc(CO)n(CC)c3=O)c(F)cc2c1=O [Example 89, 6-(4-Ethyl-3-(hydroxymethyl)-5-oxo-4,5-dihydro-1H-1,2,4-triazol-1-yl)-2-(2-ethylphenyl)-7-fluoro-4-isopropylisoquinolin-1(2H)-one]",2,1.21,–
"CCn1c(CO)nn(-c2cc3c(C(C)C)cn(-c4cc(OC)ncc4F)c(=O)c3cc2F)c1=O [Example 91, 6-(4-Ethyl-3-(hydroxymethyl)-5-oxo-4,5-dihydro-1H-1,2,4-triazol-1-yl)-7-fluoro-2-(5-fluoro-2-methoxypyridin-4-yl)-4-isopropylisoquinolin-1(2H)-one]",30,6.05,–
"[2H]C([2H])([2H])c1ccccc1-n1cc(C(C)C)c2cc(-n3nc(CO)n(CC)c3=O)c(F)cc2c1=O [Example 93, 6-(4-Ethyl-3-(hydroxymethyl)-5-oxo-4,5-dihydro-1H-1,2,4-triazol-1-yl)-7-fluoro-4-isopropyl-2-(2-(methyl-d3)phenyl)isoquinolin-1(2H)-one]",0.6,0.463,–
"CCn1c(CO)nn(-c2cc3c(C(C)C)cn(-c4cncnc4C)c(=O)c3cc2F)c1=O [Example 94, 6-(4-Ethyl-3-(hydroxymethyl)-5-oxo-4,5-dihydro-1H-1,2,4-triazol-1-yl)-7-fluoro-4-isopropyl-2-(4-methylpyrimidin-5-yl)isoquinolin-1(2H)-one]",> 100,566,–
"CCn1c(CO)nn(-c2cc3c(C(C)C)cn(-c4ccccc4OC)c(=O)c3cc2F)c1=O [Example 95, 6-(4-Ethyl-3-(hydroxymethyl)-5-oxo-4,5-dihydro-1H-1,2,4-triazol-1-yl)-7-fluoro-4-isopropyl-2-(2-methoxyphenyl)isoquinolin-1(2H)-one]",1,0.772,–
"CCn1c(CO)nn(-c2cc3c(C(C)C)cn(-c4nc(OC)ccc4F)c(=O)c3cc2F)c1=O [Example 96, 6-(4-Ethyl-3-(hydroxymethyl)-5-oxo-4,5-dihydro-1H-1,2,4-triazol-1-yl)-7-fluoro-2-(3-fluoro-6-methoxypyridin-2-yl)-4-isopropylisoquinolin-1(2H)-one]",9,6.14,–
"CCn1c(CO)nn(-c2cc3c(C(C)C)cn(-c4nccnc4C)c(=O)c3cc2F)c1=O [Example 97, 6-(4-Ethyl-3-(hydroxymethyl)-5-oxo-4,5-dihydro-1H-1,2,4-triazol-1-yl)-7-fluoro-4-isopropyl-2-(3-methylpyrazin-2-yl)isoquinolin-1(2H)-one]",> 100,> 10000,–
"CCn1c(CO)nn(-c2cc3c(C(C)C)cn(-c4cc(C)cnc4Cl)c(=O)c3cc2F)c1=O [Example 98, 2-(2-Chloro-5-methylpyridin-3-yl)-6-(4-ethyl-3-(hydroxymethyl)-5-oxo-4,5-dihydro-1H-1,2,4-triazol-1-yl)-7-fluoro-4-isopropylisoquinolin-1(2H)-one]",50,6.29,–
"CCn1c(CO)nn(-c2nc3c(C(C)C)cn(-c4cc(C)ccc4F)c(=O)c3cc2F)c1=O [Example 99, 2-(4-Ethyl-3-(hydroxymethyl)-5-oxo-4,5-dihydro-1H-1,2,4-triazol-1-yl)-3-fluoro-6-(2-fluoro-5-methylphenyl)-8-isopropyl-1,6-naphthyridin-5(6H)-one]",7,6.1,–
"CCn1c(CO)nn(-c2cc3c(C(C)C)cn(-c4nnccc4C)c(=O)c3cc2F)c1=O [Example 100, 6-(4-Ethyl-3-(hydroxymethyl)-5-oxo-4,5-dihydro-1H-1,2,4-triazol-1-yl)-7-fluoro 4-isopropyl-2-(4-methylpyridazin-3-yl)isoquinolin-1(2H)-one]",> 100,70.7,–
"CCn1c(CO)nn(-c2cc3c([C@H](C)C(F)(F)F)cn(-c4ccccc4C)c(=O)c3cc2F)c1=O [Example 101, (S)-6-(4-Ethyl-3-(hydroxymethyl)-5-oxo-4,5-dihydro-1H-1,2,4-triazol-1-yl)-7-fluoro-2-(o-tolyl)-4-(1,1,1-trifluoropropan-2-yl)isoquinolin-1(2H)-one]",0.4,1.19,–
"CCn1c(CO)nn(-c2cc3c([C@@H](C)C(F)(F)F)cn(-c4ccccc4C)c(=O)c3cc2F)c1=O [Example 102, (R)-6-(4-Ethyl-3-(hydroxymethyl)-5-oxo-4,5-dihydro-1H-1,2,4-triazol-1-yl)-7-fluoro-2-(o-tolyl)-4-(1,1,1-trifluoropropan-2-yl)isoquinolin-1(2H)-one]",0.3,0.26,–
"CCn1c(CO)nn(-c2cc3c(C(C)C)cn(-c4ccccc4C(F)(F)F)c(=O)c3cc2F)c1=O [Example 103, 6-(4-Ethyl-3-(hydroxymethyl)-5-oxo-4,5-dihydro-1H-1,2,4-triazol-1-yl)-7-fluoro-4-isopropyl-2-(2-(trifluoromethyl)phenyl)isoquinolin-1(2H)-one]",0.3,0.669,–
"CCn1c(CO)nn(-c2cc3c(C(C)C)cn(-c4ncncc4C)c(=O)c3cc2F)c1=O [Example 104, 6-(4-Ethyl-3-(hydroxymethyl)-5-oxo-4,5-dihydro-1H-1,2,4-triazol-1-yl)-7-fluoro-4-isopropyl-2-(5-methylpyrimidin-4-yl)isoquinolin-1(2H)-one]",> 100,43.5,–
"CCn1c(CO)nn(-c2cc3c(C(C)C)cn(-c4ccccc4C(F)F)c(=O)c3cc2F)c1=O [Example 105, 2-(2-(Difluoromethyl)phenyl)-6-(4-ethyl-3-(hydroxymethyl)-5-oxo-4,5-dihydro-1H-1,2,4-triazol-1-yl)-7-fluoro-4-isopropylisoquinolin-1(2H)-one]",≤ 0.2,0.528,0.2
"CCn1c(CO)nn(-c2cc3c(C(C)C)cn(-c4ccnc(OC)c4Cl)c(=O)c3cc2F)c1=O [Example 106, 2-(3-Chloro-2-methoxypyridin-4-yl)-6-(4-ethyl-3-(hydroxymethyl)-5-oxo-4,5-dihydro-1H-1,2,4-triazol-1-yl)-7-fluoro-4-isopropylisoquinolin-1(2H)-one]",10,4.88,–
"CCn1c(CO)nn(-c2cc3c(C(C)C)cn(C4CCCCC4)c(=O)c3cc2F)c1=O [Example 107, 2-Cyclohexyl-6-(4-ethyl-3-(hydroxymethyl)-5-oxo-4,5-dihydro-1H-1,2,4-triazol-1-yl)-7-fluoro-4-isopropylisoquinolin-1(2H)-one]",6,2.07,–
